Laboratory results as given in patent US20240417398A1, “TETRAHYDRONAPTHYRIDINE AND RELATED ANALOGS FOR INHIBITING YAP/TAZ-TEAD” (SpringWorks Therapeutics, Inc., priority 2023, published 2024).

Tests used:
Type in all cases: cell-based
NCI-H226 = assay: Mesothelioma cell line proliferation assay (ATPlite), NCI-H226; conditions: Homo sapiens, 144 h; NCI-H226 cells, 6 days with compound, ATPlite cell viability
Description: (§1) Mesothelioma cell lines, NCI-H226 and NCI-H2052 (both sourced from the ATCC cell culture collection) were plated in 96-well plates (Corning® 96 Well White Polystyrene Microplate clear flat bottom, white polystyrene (TC-Treated)), at 1500 cells/well in full medium (RPMI 1640 ATCC modification with L-glutamine, HEPES, Phenol Red, Sodium Pyruvate, High glucose, Low sodium bicarbonate and 10% fetal bovine serum). Cells were incubated overnight at 37° C. in an incubator with 5% CO2. Then compounds, dissolved in DMSO, were added in dose-response. Cells were incubated with compound dilutions for another 6 days at 37° C. in an incubator with 5% CO2. Cell viability was quantitated using the ATPlite kit (Perkin-Elmer) and the luminescence was read-out using an Envision instrument (Perkin-Elmer). The amount of relative light units produced using the ATPlite kit was used to calculate percent of inhibition.
(§2) The activities of some example compounds are depicted in Table 4. The activity ranges A, B and C refer to EC50 values in the mesothelioma cell line proliferation assay as described as follows: “A”: EC50<1 μM; “B”: 1 μM≤EC50<10 μM and “C”: EC50>10 μM; NT: not tested.

NCI-H2052 = assay: Mesothelioma cell line proliferation assay (ATPlite), NCI-H2052; conditions: Homo sapiens, 144 h; NCI-H2052 cells, 6 days with compound, ATPlite cell viability
Description: as §1, §2

[1] = tested on: YAP/TAZ-TEAD transcription; assay: Reporter gene assay for measuring the inhibition of YAP/TAZ-TEAD transcription (TEAD-responsive element luciferase reporter, Hek293T cells); conditions: Hek293T cells transfected with TEAD-responsive element luciferase reporter, 24 hours incubation
Method in brief: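 HEK293T cells transiently transfected with a TEAD-responsive luciferase reporter are plated on compounds and incubated 24 h at 37 °C/5% CO2, then read with SteadyLite luminescence. Percent inhibition is normalised to vehicle (0%) and a positive-control inhibitor (100%); IC50 is derived from these values.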

CCC(=O)NCC1Cc2ncccc2N(c2ccc(C(F)(F)F)cc2)C1 (single isomer, unassigned) [Cpd. No. 17-En2, (R)- or (S)-N-((1-(4-(trifluoromethyl)phenyl)-1,2,3,4-tetrahydro-1,5-naphthyridin-3-yl)methyl)propionamide]
< 1000 nM: EC50 (NCI-H226) | EC50 (NCI-H2052) | IC50 [1]

COc1ccc2c(n1)CC(CNC(C)=O)CN2c1ccc(C(F)(F)F)cc1 (single isomer, unassigned) [Cpd. No. 22-En2, (R)- or (S)-N-((6-methoxy-1-(4-(trifluoromethyl)phenyl)-1,2,3,4-tetrahydro-1,5-naphthyridin-3-yl)methyl)acetamide]
< 1000 nM: EC50 (NCI-H226) | EC50 (NCI-H2052) | IC50 [1]

CC(=O)NCC1Cc2nc(C)ccc2N(c2ccc(C(F)(F)F)cc2)C1 (single isomer, unassigned) [Cpd. No. 26-En2, (R)- or (S)-N-((6-methyl-1-(4-(trifluoromethyl)phenyl)-1,2,3,4-tetrahydro-1,5-naphthyridin-3-yl)methyl)acetamide]
< 1000 nM: EC50 (NCI-H226) | EC50 (NCI-H2052) | IC50 [1]

[2H]C([2H])([2H])C(=O)NCC1Cc2ncccc2N(c2ccc(C(F)(F)F)cc2)C1 (single isomer, unassigned) [Cpd. No. 34-En2, (R)- or (S)-N-((1-(4-(trifluoromethyl)phenyl)-1,2,3,4-tetrahydro-1,5-naphthyridin-3-yl)methyl)acetamide-2,2,2-d3]
< 1000 nM: EC50 (NCI-H226) | EC50 (NCI-H2052) | IC50 [1]

CC(=O)NCC1(C)Cc2ncccc2N(c2ccc(C(F)(F)F)cc2)C1 (single isomer, unassigned) [Cpd. No. 47-En1, (R)- or (S)-N-((3-methyl-1-(4-(trifluoromethyl)phenyl)-1,2,3,4-tetrahydro-1,5-naphthyridin-3-yl)methyl)acetamide]
< 1000 nM: EC50 (NCI-H226) | EC50 (NCI-H2052) | IC50 [1]

C=CC(=O)NCC1Cc2c(OCc3cc(=O)[nH]c(=O)[nH]3)cccc2N(c2ccc(C(F)(F)F)cc2)C1 (stereo not drawn) [Cpd. No. 4, N-((5-((2,6-dioxo-1,2,3,6-tetrahydropyrimidin-4-yl)methoxy)-1-(4-(trifluoromethyl)phenyl)-1,2,3,4-tetrahydroquinolin-3-yl)methyl)acrylamide]
< 1000 nM: EC50 (NCI-H226) | EC50 (NCI-H2052) | IC50 ([1]; Homo sapiens, HEK-293T, 24 h)

C=CC(=O)NCC1Cc2c(OCc3cc[nH]c(=O)c3)cccc2N(c2ccc(C(F)(F)F)cc2)C1 (stereo not drawn) [Cpd. No. 6, N-((5-((2-oxo-1,2-dihydropyridin-4-yl)methoxy)-1-(4-(trifluoromethyl)phenyl)-1,2,3,4-tetrahydroquinolin-3-yl)methyl)acrylamide]
< 1000 nM: EC50 (NCI-H226) | EC50 (NCI-H2052) | IC50 ([1]; Homo sapiens, HEK-293T, 24 h)

CCC(=O)NCC1Cc2c(OCc3cc[nH]c(=O)c3)cccc2N(c2ccc(C(F)(F)F)cc2)C1 (stereo not drawn) [Cpd. No. 7, N-((5-((2-oxo-1,2-dihydropyridin-4-yl)methoxy)-1-(4-(trifluoromethyl)phenyl)-1,2,3,4-tetrahydroquinolin-3-yl)methyl)propionamide]
< 1000 nM: EC50 (NCI-H226) | EC50 (NCI-H2052) | IC50 ([1]; Homo sapiens, HEK-293T, 24 h)

C=CC(=O)NCC1Cc2ncccc2N(c2ccc(C(F)(F)F)cc2)C1 (stereo not drawn) [Cpd. No. 10, N-((1-(4-(trifluoromethyl)phenyl)-1,2,3,4-tetrahydro-1,5-naphthyridin-3-yl)methyl)acrylamide]
< 1000 nM: EC50 (NCI-H226) | EC50 (NCI-H2052) | IC50 ([1]; Homo sapiens, HEK-293T, 24 h)

C=CC(=O)NCC1Cc2c(CCN3CC(=O)NC(=O)C3)cccc2N(c2ccc(C(F)(F)F)cc2)C1 (stereo not drawn) [Cpd. No. 11, N-((5-(2-(3,5-dioxopiperazin-1-yl)ethyl)-1-(4-(trifluoromethyl)phenyl)-1,2,3,4-tetrahydroquinolin-3-yl)methyl)acrylamide]
< 1000 nM: EC50 (NCI-H226) | EC50 (NCI-H2052) | IC50 ([1]; Homo sapiens, HEK-293T, 24 h)

CC(=O)NCC1Cc2ncccc2N(c2ccc(C(F)(F)F)cc2)C1 (stereo not drawn) [Cpd. No. 12, N-((1-(4-(trifluoromethyl)phenyl)-1,2,3,4-tetrahydro-1,5-naphthyridin-3-yl)methyl)acetamide]
< 1000 nM: EC50 (NCI-H226) | EC50 (NCI-H2052) | IC50 ([1]; Homo sapiens, HEK-293T, 24 h)

C=CC(=O)NCC1Cc2c(OCc3cc(=O)[nH]c(=O)n3C)cccc2N(c2ccc(C(F)(F)F)cc2)C1 (stereo not drawn) [Cpd. No. 14, N-((5-((3-methyl-2,6-dioxo-1,2,3,6-tetrahydropyrimidin-4-yl)methoxy)-1-(4-(trifluoromethyl)phenyl)-1,2,3,4-tetrahydroquinolin-3-yl)methyl)acrylamide]
< 1000 nM: EC50 (NCI-H226) | EC50 (NCI-H2052) | IC50 ([1]; Homo sapiens, HEK-293T, 24 h)

CC(=O)NCC1Cc2nc(C)ccc2N(c2ccc(C(F)(F)F)cc2)C1 (stereo not drawn) [Cpd. No. 26, N-((6-methyl-1-(4-(trifluoromethyl)phenyl)-1,2,3,4-tetrahydro-1,5-naphthyridin-3-yl)methyl)acetamide]
< 1000 nM: EC50 (NCI-H226) | EC50 (NCI-H2052) | IC50 ([1]; Homo sapiens, HEK-293T, 24 h)
